Measured values taken from patent EP0908457B1, “3-(1,2-benzisothiazol- and isoxazol-5-Y1)-2,4(1H,3H)-pyrimidinedione or thione and 3-(1,2-benzisothiazol- and isoxazol-5-y1)-4(3H)-pyrimidinone or thione herbicidal agents” (BASF AKTIENGESELLSCHAFT, priority 1997, dated 1999).

How the values were obtained:
[1] = system: Monochoria vaginalis, Presl.; assay: Preemergence weed control under flooded paddy conditions, MOOVA (Monochoria); format: in vivo; conditions: preemergence weeds, flooded paddy, rated three to four weeks after treatment
Sagittaria pygmaea, L. = assay: Preemergence weed control under flooded paddy conditions, SAGPY (Arrowhead (Pygmaea)); format: in vivo; conditions: preemergence weeds, flooded paddy, rated three to four weeks after treatment
[2] = system: Oryza sativa, (L.) Tebonnet; assay: Rice tolerance to post-transplant applications under flooded paddy conditions (Example 187), ORYSAT (Rice, Tebonnet); conditions: rated three to four weeks after treatment
[3] = system: Cyperus serotinus, Rottb.; assay: Preemergence weed control under flooded paddy conditions, CYPSE (Flatsedge); format: in vivo; conditions: preemergence weeds, rated three to four weeks after treatment
[4] = system: Echinochloa oryzoides (Ard.) Fritsch.; assay: Preemergence weed control under flooded paddy conditions, ECHORC (Watergrass (Calif.)); format: in vivo; conditions: preemergence weeds, flooded paddy, rated three to four weeks after treatment
Cyperus iria = assay: Preemergence weed control under flooded paddy conditions, CYPIR (Rice Flatsedge); format: in vivo; conditions: preemergence weeds, flooded paddy, rated three to four weeks after treatment
Further: meaning of each grade not given here.

Structure (SMILES) | herbicidal effect rating, MOOVA ([1]; Rate 0.0320 kg/ha) | herbicidal effect rating, MOOVA ([1]; Rate 0.0620 kg/ha) | herbicidal effect rating, MOOVA ([1]; Rate 0.1250 kg/ha) | herbicidal effect rating, MOOVA ([1]; Rate 0.2500 kg/ha) | herbicidal effect rating, SAGPY (Sagittaria pygmaea, L.; Rate 0.0320 kg/ha) | herbicidal effect rating, SAGPY (Sagittaria pygmaea, L.; Rate 0.0620 kg/ha) | herbicidal effect rating, SAGPY (Sagittaria pygmaea, L.; Rate 0.1250 kg/ha) | herbicidal effect rating, SAGPY (Sagittaria pygmaea, L.; Rate 0.2500 kg/ha) | herbicidal effect rating ORYSAT ([2]; Rate 0.0320 kg/ha) | herbicidal effect rating ORYSAT ([2]; Rate 0.0620 kg/ha) | herbicidal effect rating ORYSAT ([2]; Rate 0.1250 kg/ha) | herbicidal effect rating ORYSAT ([2]; Rate 0.2500 kg/ha) | herbicidal effect rating, CYPSE ([3]; Rate 0.0320 kg/ha) | herbicidal effect rating, CYPSE ([3]; Rate 0.0620 kg/ha) | herbicidal effect rating, CYPSE ([3]; Rate 0.1250 kg/ha) | herbicidal effect rating, CYPSE ([3]; Rate 0.2500 kg/ha) | herbicidal effect rating, ECHORC ([4]; Rate 0.0320 kg/ha) | herbicidal effect rating, ECHORC ([4]; Rate 0.0620 kg/ha) | herbicidal effect rating, ECHORC ([4]; Rate 0.1250 kg/ha) | herbicidal effect rating, ECHORC ([4]; Rate 0.2500 kg/ha) | also measured
COc1cccc(-c2nsc3ccc(-n4c(=O)cc(C(F)(F)F)n(C)c4=O)cc23)c1 [Example 301, 2,4(1H,3H)-Pyrimidinedione, 3-[3-(m-methoxyphenyl)-1,2-benzisothiazol-5-yl]-1-methyl-6-(trifluoromethyl)-] | 9.0 | 9.0 | 9.0 | 9.0 | 2.0 | 4.5 | 7.0 | 8.5 | 1.0 | 1.0 | 2.5 | 3.5 | 9.0 | 9.0 | 9.0 | 9.0 | 9.0 | 9.0 | 9.0 | 9.0 | herbicidal effect rating, CYPIR (Cyperus iria; Rate 0.0320 kg/ha): 9.0; herbicidal effect rating, CYPIR (Cyperus iria; Rate 0.0620 kg/ha): 9.0; herbicidal effect rating, CYPIR (Cyperus iria; Rate 0.1250 kg/ha): 9.0; herbicidal effect rating, CYPIR (Cyperus iria; Rate 0.2500 kg/ha): 9.0
C[C@H](Br)[C@H](Br)c1nsc2ccc(-n3c(=O)cc(C(F)(F)F)n(C)c3=O)cc12 [Example 302, 2,4(1H,3H)-Pyrimidinedione, 3-[3-(1,2-dibromopropyl)-1,2-benzisothiazol-5-yl]-1-methyl-6-(trifluoromethyl)-, (1R,2S)-] | 7.0 | 7.0 | 9.0 | 9.0 | 0.0 | 0.0 | 9.0 | 9.0 | 1.0 | 4.5 | 7.0 | 8.0 | 4.5 | 4.5 | 4.5 | 6.0 | 4.0 | 5.0 | 8.0 | 8.5 | herbicidal effect rating, CYPIR (Cyperus iria; Rate 0.0320 kg/ha): 8.0; herbicidal effect rating, CYPIR (Cyperus iria; Rate 0.0620 kg/ha): 8.0; herbicidal effect rating, CYPIR (Cyperus iria; Rate 0.1250 kg/ha): 8.5; herbicidal effect rating, CYPIR (Cyperus iria; Rate 0.2500 kg/ha): 8.5
C[C@@H](Br)[C@H](Br)c1nsc2ccc(-n3c(=O)cc(C(F)(F)F)n(C)c3=O)cc12 [Example 303, 2,4(1H,3H)-Pyrimidinedione, 3-[3-(1,2-dibromopropyl)-1,2-benzisothiazol-5-yl]-1-methyl-6-(trifluoromethyl)-, (1R,2R)-] | 7.0 | 9.0 | 9.0 | 9.0 | 2.0 | 2.0 | 8.5 | 9.0 | 2.0 | 4.5 | 5.0 | 7.5 | 0.0 | 4.0 | 5.0 | 6.0 | 2.5 | 7.5 | 9.0 | 9.0 | herbicidal effect rating, CYPIR (Cyperus iria; Rate 0.0320 kg/ha): 8.0; herbicidal effect rating, CYPIR (Cyperus iria; Rate 0.0620 kg/ha): 8.0; herbicidal effect rating, CYPIR (Cyperus iria; Rate 0.1250 kg/ha): 8.5; herbicidal effect rating, CYPIR (Cyperus iria; Rate 0.2500 kg/ha): 8.5
Cn1c(C(F)(F)F)cc(=O)n(-c2ccc3snc(CN(C(=O)OC(C)(C)C)S(C)(=O)=O)c3c2)c1=O [Example 304, Carbamic acid, {{5-[3,6-dihydro-3-methyl-2,6-dioxo-4-(trifluoromethyl)-1(2H)-pyrimidinyl]-1,2-benzisothiazol-3-yl}methyl}(methylsulfonyl)-, tert-butyl ester] | 0.0 | 7.0 | 7.0 | 9.0 | 0.0 | 0.0 | 0.0 | 0.0 | 0.0 | 2.0 | 4.0 | 4.0 | 0.0 | 0.0 | 0.0 | 0.0 | 0.0 | 0.0 | 0.0 | 0.0 | herbicidal effect rating, CYPIR (Cyperus iria; Rate 0.0320 kg/ha): 0.0; herbicidal effect rating, CYPIR (Cyperus iria; Rate 0.0620 kg/ha): 4.0; herbicidal effect rating, CYPIR (Cyperus iria; Rate 0.1250 kg/ha): 9.0; herbicidal effect rating, CYPIR (Cyperus iria; Rate 0.2500 kg/ha): 9.0
